Legend:
[1] = tested on: Collagen induced arthritis; experiment: Collagen induced arthritis (CIA), rats; format: in vivo; conditions: 5 mg/kg p.o.
From the text: (§1) Collagen induced arthritis is a commonly used and widely accepted arthritis model. Immunologically, the model is dominated by a Th1 response; it is antigen specific and depends on both the B- and T-cell response. This model is responsive to most therapies effective in rheumatoid arthritis in humans except NSAIDs.
(§2) Starting from 21 days after the induction of CIA, the mice were weighed twice a week and the inflammation of the four paws was graded from 0 to 4: • 0: Normal • 1: Swelling of 1-2 toe joints or swelling of metatarsus/metacarpus without swelling of toe joints. • 2: Swelling of >2 toe joints or swelling of toe joints and metatarsus/metacarpus • 3: Severe swelling of the paw including metatarsus/metacarpus • 4: Very severe swelling of the paw resulting in chapped skin. The animals are euthanised. The sum of the scores from the four paws is reported as the arthritis score for each mouse. The maximum score obtainable is therefore 16.
(§3) The area under curve (AUC) of the arthritis score was calculated for all mice and used as a disease index. The treatment effect (inhibitory effect) of the compounds is calculated as:
(§4) 1−(AUCtreatment group)/(AUCvehicle group)
Lewis inbred rats (Harlan), 6 females per group, approximately 11 weeks old were immunised intradermally (i.d.) at the base of the tail with 200 μl of CII emulsion (1 mg/ml) in incomplete Freunds adjuvant (FIA). The rats were re-immunised 10 days later with 50 μl of CII emulsion (1 mg/ml) in FIA. From day 12 the inflammation of each paw was graded and calculated as described for the mouse model. The test-compound was administrated orally from day 10 or from day 14. The last day of treatment was the day before the end of the experiment.

[2] = tested on: Collagen induced arthritis; experiment: Collagen induced arthritis (CIA), mice; format: in vivo; conditions: 3 mg/kg p.o.
Method: as §1
In order to induce arthritis, the mice were immunised intradermally (i.d.) at the base of the tail with 100 μl of CII emulsion (2 mg/ml) in FCA (2 mg/ml of M. tuberculosis). The mice were re-immunised i.d. 21 days later with 100 μl of CII emulsion (1 mg/ml) in FIA. The test compound was administrated once daily from the initiation of treatment to the day before the end of the experiment.
as §2, §3, §4
The medians of the AUC from all groups were compared using the Kruskal-Wallis test. When P<0.05 in the Kruskal-Wallis test, the Mann Whitney test was used to compare the AUCs for individual mice in drug treated groups with the AUC for mice in the control group which were treated with vehicle (significance level P<0.05).

[3] = Table 7, first experiment, printed treated from day 10
[4] = Table 7, first experiment, treated from day 10
[5] = Table 8, second experiment, treated from day 10
[6] = Table 8, second experiment, treated from day 14

C[C@]12C=CC(=O)C=C1CC[C@@H]1[C@@H]2[C@@H](O)C[C@@]2(C)[C@H]1CC[C@]2(O)C(=O)CO [Prednisolone]
AUC of arthritis score, Average [1, 3]: 9
Percent of vehicle control (group 1) [1, 3]: −74%
AUC of arthritis score, Average [1, 4]: 0.2
Percent of vehicle control (group 1) [1, 4]: −100%
AUC of arthritis score, Average [1, 5]: 0
Percent of vehicle control (group 1) [1, 5]: −−100%
AUC of arthritis score, Average [1, 6]: 8
Percent of vehicle control (group 1) [1, 6]: −78%
AUC of arthritis score, Average ([2]; Table 5): 27
Percent of vehicle control (group 1) ([2]; Table 5, vehicle day 10): −84%
AUC of arthritis score, Average ([2]; Table 6): 27
Percent of vehicle control (group 1) ([2]; Table 6, vehicle day 28): −78%
